In US8158628B2, “Sulfonylated 1,2,3,4-tetrahydropyrrolo[1,2-a]pyrazine compounds and their use as pharmaceuticals” (Gruenenthal GmbH, priority 2009, dated 2012):

Assays:
human B1R = biological target: T1, human B1R (Homo sapiens, UniProt P46663); test: FLIPR Ca2+ functional assay, B1R antagonism, human B1R in CHO K1 cells; format: cell-based; conditions: test substance 10 μM; hB1R CHO K1 cells; agonist Lys-Des-Arg9 bradykinin at EC80; % of maximum achievable inhibition
T1 construct: expressed in transfected cells; host or cells: CHO K1 cells (Chinese hamster ovary), stably transfected
T1 sequence (P46663 1-353): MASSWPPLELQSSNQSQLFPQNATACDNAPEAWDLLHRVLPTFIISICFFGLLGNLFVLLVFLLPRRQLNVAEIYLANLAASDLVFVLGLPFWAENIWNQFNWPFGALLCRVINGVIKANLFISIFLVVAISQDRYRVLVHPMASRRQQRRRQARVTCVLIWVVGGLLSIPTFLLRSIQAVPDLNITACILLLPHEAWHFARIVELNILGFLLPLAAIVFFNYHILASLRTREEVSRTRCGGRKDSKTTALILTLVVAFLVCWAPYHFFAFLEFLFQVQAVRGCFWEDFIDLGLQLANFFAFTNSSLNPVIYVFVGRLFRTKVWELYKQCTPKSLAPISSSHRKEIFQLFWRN
In short: (§1)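 IC50 values come from varied compound concentrations applied 10-20 min before an EC80 agonist challenge, with Des-Arg9 bradykinin for rat and Lys-Des-Arg9 bradykinin for human receptor. Ca2+ influx in Fluo-4-loaded CHO K1 transfectants was measured by FLIPR peak fluorescence. Data are % inhibition vs maximum, n=2-3, N>=2.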

B1R of the rat = biological target: T2, B1R of the rat (Rattus norvegicus, UniProt P97583); test: FLIPR Ca2+ functional assay, B1R antagonism, rat B1R in CHO K1 cells; format: cell-based; conditions: test substance 10 μM; rB1R CHO K1 cells; agonist Des-Arg9 bradykinin at EC80; % of maximum achievable inhibition
T2 construct: expressed in transfected cells; host or cells: CHO K1 cells (Chinese hamster ovary), stably transfected
T2 sequence (P97583 1-337): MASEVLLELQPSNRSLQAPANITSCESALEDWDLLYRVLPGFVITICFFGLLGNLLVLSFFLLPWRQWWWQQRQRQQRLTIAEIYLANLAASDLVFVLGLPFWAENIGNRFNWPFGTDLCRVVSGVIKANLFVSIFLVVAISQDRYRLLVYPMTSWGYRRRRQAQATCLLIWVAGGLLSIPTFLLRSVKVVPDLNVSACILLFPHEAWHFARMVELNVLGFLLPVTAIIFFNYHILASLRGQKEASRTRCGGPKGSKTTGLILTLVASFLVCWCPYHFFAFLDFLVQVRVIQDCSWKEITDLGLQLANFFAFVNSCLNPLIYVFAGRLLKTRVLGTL
In short: as §1

O=C(CC1c2cccn2CCN1S(=O)(=O)c1cccc(C(F)(F)F)c1)NC1CCc2cc(CN3CCCCC3)ccc2C1 (stereo not drawn) [Example 30, N-(6-(piperidin-1-ylmethyl)-1,2,3,4-tetrahydro-naphthalen-2-yl)-2-(2-(3-(trifluoromethyl)-phenylsulfonyl)-1,2,3,4-tetrahydropyrrolo-[1,2-a]pyrazin-1-yl)acetamide]
inhibition at 10 µM (human B1R): 99.8% | inhibition at 10 µM (B1R of the rat): 102%

Cc1ccc(S(=O)(=O)N2CCn3cccc3C2CC(=O)NC2CCCc3cc(CN(C)C(C)(C)C)ccc32)cc1 (stereo not drawn) [Example 74, N-[6-[(tert-Butyl-methyl-amino)-methyl]-1,2,3,4-tetrahydro-naphthalen-1-yl]-2-[2-(p-tolylsulfonyl)-1,2,3,4-tetrahydro-pyrrolo[1,2-a]pyrazin-1-yl]-acetamide]
inhibition at 10 µM (human B1R): 99.7% | inhibition at 10 µM (B1R of the rat): 91.2%

Cc1cc(S(=O)(=O)N2CCn3cccc3C2CC(=O)NC2CCc3cc(CN4CCCCC4)ccc3C2)c(C)cc1Cl (stereo not drawn) [Example 25, 2-(2-(4-chloro-2,5-dimethylphenylsulfonyl)-1,2,3,4-tetrahydropyrrolo[1,2-a]pyrazin-1-yl)-N-(6-(piperidin-1-ylmethyl)-1,2,3,4-tetrahydronaphthalen-2-yl)acetamide]
inhibition at 10 µM (human B1R): 96% | inhibition at 10 µM (B1R of the rat): 103%

O=C(CC1c2cccn2CCN1S(=O)(=O)c1cccc(C(F)(F)F)c1)NC1CCc2cc(CNCc3ccccc3)ccc2C1 (stereo not drawn) [Example 83, N-[6-[(Benzylamino)-methyl]-1,2,3,4-tetrahydro-naphthalen-2-yl]-2-[2-[[3-(trifluoromethyl)phenyl]sulfonyl]-1,2,3,4-tetrahydro-pyrrolo[1,2-a]pyrazin-1-yl]-acetamide]
inhibition at 10 µM (human B1R): 99.3% | inhibition at 10 µM (B1R of the rat): 101%

O=C(COCC1c2cccn2CCN1S(=O)(=O)c1ccccc1C(F)(F)F)N1CCC2(CC1)CCN(c1ccncc1)C2 (stereo not drawn) [Example 21, 1-(2-(Pyridin-4-yl)-2,8-diazaspiro[4.5]decan-8-yl)-2-((2-(2-(trifluoromethyl)phenylsulfonyl)-1,2,3,4-tetrahydropyrrolo[1,2-a]pyrazin-1-yl)methoxy)ethanone]
inhibition at 10 µM (human B1R): 100% | inhibition at 10 µM (B1R of the rat): 113%

Cc1ccc(S(=O)(=O)N2CCn3cccc3C2CC(=O)NC2CCc3cc(CN(C)C)ccc3C2)cc1 (stereo not drawn) [Example 58, N-[6-(Dimethylaminomethyl)-1,2,3,4-tetrahydro-naphthalen-2-yl]-2-[2-(p-tolylsulfonyl)-1,2,3,4-tetrahydro-pyrrolo[1,2-a]pyrazin-1-yl]-acetamide]
inhibition at 10 µM (human B1R): 100% | inhibition at 10 µM (B1R of the rat): 103%

COc1ccc2cc(S(=O)(=O)N3CCn4cccc4C3CC(=O)NC3CCCc4cc(CN5CCCc6ccccc65)ccc43)ccc2c1 (stereo not drawn) [Example 130, 2-[2-[(6-Methoxy-naphthalen-2-yl)sulfonyl]-1,2,3,4-tetrahydro-pyrrolo[1,2-a]pyrazin-1-yl]-N-[6-(1,2,3,4-tetrahydro-quinolin-1-yl-methyl)-1,2,3,4-tetrahydro-naphthalen-1-yl]-acetamide]
inhibition at 10 µM (human B1R): 73.6% | inhibition at 10 µM (B1R of the rat): 98.8%

Cc1ccc(S(=O)(=O)N2CCn3cccc3C2CC(=O)NC2CCc3cc(CNC(C)(C)C)ccc3C2)cc1 (stereo not drawn) [Example 122, N-[6-[(tert-Butylamino)-methyl]-1,2,3,4-tetrahydro-naphthalen-2-yl]-2-[2-(p-tolylsulfonyl)-1,2,3,4-tetrahydro-pyrrolo[1,2-a]pyrazin-1-yl]-acetamide]
inhibition at 10 µM (human B1R): 99.6% | inhibition at 10 µM (B1R of the rat): 101%

COc1ccc2cc(S(=O)(=O)N3CCn4cccc4C3CC(=O)NC3CCc4cc(CN5CCCc6ccccc65)ccc4C3)ccc2c1 (stereo not drawn) [Example 105, 2-[2-[(6-Methoxy-naphthalen-2-yl)sulfonyl]-1,2,3,4-tetrahydro-pyrrolo[1,2-a]pyrazin-1-yl]-N-[6-(1,2,3,4-tetrahydro-quinolin-1-yl-methyl)-1,2,3,4-tetrahydro-naphthalen-2-yl]-acetamide]
inhibition at 10 µM (human B1R): 99.8% | inhibition at 10 µM (B1R of the rat): 103%
